We go through twelve molecules from patent US8450352B2, “Thiazole compounds and their use for inhibiting phosphodiesterase 4, TNF-α, and IL-4” (Otsuka Pharmaceutical Co., Ltd., priority 2004, dated 2013).

Counter-ions that a name gives are not always drawn.

One data set concerns the target T1, human PDE4D (HPDE4D) (Homo sapiens, UniProt Q08499).
T1 construct: made in house; host or cells: COS-7 cells (African green monkey kidney), transient transfection; soluble supernatant of the homogenate
Kind of data set: Confirmatory test for phosphodiesterase (PDE) 4 inhibitory activity. The class given is biochemical. As to conditions: concentration that inhibits the PDE4 activity by 50%; PDE4D enzyme solution from transfected COS-7 cells, [3H]cAMP substrate. The text has this:
Confirmatory Test for Phosphodiesterase (PDE) 4 Inhibitory Activity
(1) Mass Preparation of Plasmids
Plasmids containing genes coding for human PDE4D (HPDE4D) (stored in Otsuka America Pharmaceutical, Inc., Maryland Research Laboratories) were transformed into Escherichia coli, and mass cultured. The plasmids were then purified using EndoFree™ Plasmid Mix Kit (Qiagen).
(2) Mass expression and purification of PDE4D
African green monkey kidney-derived COS-7 cells (RCB 0539) were subcultured in a DMEM medium containing 100 units/ml penicillin, […] streptomycin and 10% FBS. The plasmids prepared in (1) were transfected into the cells, using LipofectAMINE™ 2000 Reagent (hereinafter referred to as “LF2000”, a product of Invitroge), according to the attached protocol. For comparison, pcDNA3.1 was transfected as a control vector. The COS-7 cells were inoculated into 10 cm diameter petri dishes on the day before transfection, so that the cells reached 90% confluence on the day of transfection. Twelve micrograms of the plasmids diluted with 0.9 ml of OPTI-MEM I (Invitrogen) (a plasmid solution; Solution A) and 30 μl of LF2000 diluted with 0.9 ml of OPTI-MEM I (a LF2000 solution; Solution B) were prepared per petri dish, and allowed to stand at room temperature for 5 minutes. Solutions A and B were then mixed together and allowed to stand at room temperature for 20 minutes. The mixture was added to the cultured cells, and incubation was performed overnight at 37° C. in an atmosphere of 5% CO2. The culture medium was changed on the following day, incubation was continued overnight, and the cells were collected by the following procedure. First, the cells were washed once with PBS (Sigma), and 2 ml of Trypsin-EDTA solution (Sigma) was added per petri dish, spread over the dish and removed. The cells were then allowed to stand at 37° C. for 2 to 3 minutes, separated from the petri dish and suspended in a medium. The suspension was placed in a centrifuge tube, and centrifuged at 200×g and 4° C. for 5 minutes. The supernatant was then removed. The cells were further washed with PBS and stored at −80° C. A KHEM buffer (50 mM Hepes, 50 mM KCl, 10 mM EGTA, 1.92 mM MgCl2, pH 7.2) containing 1 mM DTT, 40 μg/ml PMST, 156 μg/ml benzamidine, 1 μg/ml apotinin, 1 μg/ml leupeptin, 1 μg/ml pepstatin A, and 1 μg/ml antipain was added to the cells that had been stored, and the resulting mixture was placed in a glass homogenizer and homogenized on ice. The cell suspension was centrifuged at 100×g and 4° C. for 5 minutes, and the supernatant was further centrifuged at 100,000×g for 1 hour. Thereafter, the supernatant was dispensed into new tubes as a PDE4D enzyme solution, and stored in an ultra-low-temperature freezer. The protein concentration of the PDE4D enzyme solution was then measured.
(3) Determination of Dilution Factor of PDE4D Enzyme Solution
The PDE4D enzyme solution prepared in (2) was diluted 10-, 25-, 50-, 100-, 200-, 400- and 800-fold with 20 mM Tris-HCl (pH 7.4), and the PDE4D activities of the diluted enzyme solutions were measured by the method described in (4) to determine the optimum dilution factor to obtain a PDE4D enzyme solution in which degraded cAMP constituted 10 to 30% of the total cAMP.
(4) Measurement of PDE4D Inhibitory Activity
The necessary amount of each test substance was weighed out and dissolved in 100% DMSO to a concentration of 10 mM. The resulting solutions were stored in a freezer as test substance stock solutions. Before the inhibitory activity measurement, the stock solutions were melted, diluted 2-fold with 100% DMSO to a concentration of 5 mM, and further diluted with 100% DMSO to obtain test substance solutions with 10 graded concentrations. Each test substance solution was added to a 1.2 ml tube containing 23 μl of 20 mM Tris-HCl (pH 7.4). […]

The next data set has as its system TNF-α production. Kind of data set: Measurement of TNF-α production inhibitory activity. As to conditions: PBMC; concentration that inhibits TNF-α production by 50%; LPS (1 μg/ml)-stimulated human peripheral blood mononuclear cells, 24 hours, ELISA. The class given is cell-based. The method, then: Measurement of TNF-α Production Inhibitory Activity
The following tests were performed to evaluate TNF-α production inhibitory activity.
(1) Separation of Human Peripheral Blood Mononuclear Cells
A peripheral blood sample was obtained from a healthy adult donor who had signed a written informed consent. Thirty milliliters of the blood sample, which had been heparinized, was dispensed into a Leucosep tube (Greiner) containing 16 ml of a lymphocyte separation solution (Nakarai Chemical, Ltd.) under the filter barrier, and centrifuged at 1000×g for 15 minutes.
The intermediate layer corresponding to a mononuclear cell fraction was collected in a 50 ml centrifuge tube, and washed twice with a RPMI 1640 medium. After trypan blue staining, the viable count was determined and adjusted to 2×10^6 cells/ml with RPMI 1640 medium.
(2) Induction of TNF-α Production
E. coli (Serotype 055:B5)-derived LPS, which had been dissolved in a RPMI 1640 medium to a concentration of 5 mg/ml, sterilized by filtration and stored in a freezer, was melted and diluted with a RPMI 1640 medium to 10 μg/ml. The test substances were dissolved in DMSO to obtain solutions with a concentration of […] the final use concentration. One microliter of each of the graded concentration test substance solutions, 149 μl of RPMI 1640 medium, 50 μl of LPS solution (final concentration: 1 μg/ml), 50 μl of fetal bovine serum, and […] of the peripheral blood mononuclear cell suspension were dispensed to each well of a 48-well plate and incubated at 37° C. for 24 hours.
(3) Measurement of TNF-α Concentration
After completion of the incubation, the culture supernatant was collected from each well, and the TNF-α concentration in the supernatant was measured by ELISA method (Human TNF-α Eli-pair, Diaclone).
(In general: In an ELISA, binding on a coated surface is turned into a signal by an enzyme label.)

The IC50 is the concentration at which inhibition is half-maximal. A low value points to higher potency. For orientation: melting point means the temperature, or range, at which the solid turns liquid.

T1 sequence (Q08499 whole entry): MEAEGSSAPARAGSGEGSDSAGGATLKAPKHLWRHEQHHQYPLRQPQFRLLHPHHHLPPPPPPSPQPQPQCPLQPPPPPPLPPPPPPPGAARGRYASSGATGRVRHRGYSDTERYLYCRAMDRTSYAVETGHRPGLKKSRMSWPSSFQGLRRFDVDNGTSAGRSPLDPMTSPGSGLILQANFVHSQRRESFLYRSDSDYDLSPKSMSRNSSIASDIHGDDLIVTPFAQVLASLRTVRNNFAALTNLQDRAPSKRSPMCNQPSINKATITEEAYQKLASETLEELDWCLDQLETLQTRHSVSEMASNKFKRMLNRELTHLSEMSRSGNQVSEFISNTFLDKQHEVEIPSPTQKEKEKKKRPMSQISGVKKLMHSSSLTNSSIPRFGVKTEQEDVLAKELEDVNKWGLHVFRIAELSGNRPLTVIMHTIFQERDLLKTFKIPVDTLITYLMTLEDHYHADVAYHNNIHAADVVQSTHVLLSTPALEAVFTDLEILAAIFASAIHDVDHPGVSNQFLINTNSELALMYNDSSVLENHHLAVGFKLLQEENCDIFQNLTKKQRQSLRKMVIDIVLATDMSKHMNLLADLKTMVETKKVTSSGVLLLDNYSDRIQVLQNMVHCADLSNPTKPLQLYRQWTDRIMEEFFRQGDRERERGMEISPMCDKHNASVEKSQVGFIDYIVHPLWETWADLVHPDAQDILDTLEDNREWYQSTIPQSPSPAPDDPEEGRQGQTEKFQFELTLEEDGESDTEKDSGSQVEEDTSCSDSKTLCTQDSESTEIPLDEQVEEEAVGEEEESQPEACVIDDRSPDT

On to `CCOc1ccc(-c2nc(/C=C/C(=O)c3ccccc3OC)cs2)cc1OCC` [Example 1, (E)-3-[2-(3,4-diethoxyphenyl)thiazole-4-yl]-1-(2-methoxyphenyl)propenone], for which the melting point is 130 to 131 °C. The same molecule gave an IC50 on human PDE4D (HPDE4D) of 23.6 nM. The midpoint of inhibition in the data set with TNF-α production, the IC50, lay at 8 nM.
Consider `CCOc1ccc(-c2nc(CCC(=O)c3ncccc3OCC)cs2)cc1OCC` [Example 87, 3-[2-(3,4-diethoxyphenyl)thiazole-4-yl]-1-(3-ethoxypyridine-2-yl)-1-propanone], for which, at human PDE4D (HPDE4D), the midpoint of inhibition, the IC50, lay at 0.2 nM. This counts as sub-nanomolar.
For the molecule `CCOc1ccc(-c2nc(CCC(=O)c3ncccc3OC)cs2)cc1OCC` [Example 88, 3-[2-(3,4-diethoxyphenyl)thiazole-4-yl]-1-(3-methoxypyridine-2-yl)-1-propanone], the melting point lay within 79.2 to 79.7 °C. For the same molecule, the IC50 against human PDE4D (HPDE4D) was 0.4 nM.
`CCOc1ccc(-c2nc(CCC(=O)c3ccccc3OC)cs2)cc1OCC` [Example 89, 3-[2-(3,4-diethoxyphenyl)thiazole-4-yl]-1-(2-methoxyphenyl)-1-propanone] yielded a melting point of 68.9 to 69.3 °C. Also, the IC50 in the data set with TNF-α production was 7 nM.
For `CCOc1ccc(-c2nc(CCC(=O)c3ccccc3)cs2)cc1OCC` [Example 91], in that order: 113.3 to 113.6 °C and 543 nM.
Regarding `CCOc1ccc(-c2nc(CCC(=O)c3ccccc3C(F)(F)F)cs2)cc1OCC` [Example 99], the melting point was 91.7 to 93 °C. The molecule further came in with an IC50 at human PDE4D (HPDE4D) of 29 nM.
For `CCOc1ccc(-c2nc(CCC(=O)c3ccccc3OCC)cs2)cc1OCC` [Example 100], the melting point is 84.3 to 86.1 °C. The same molecule displayed an IC50 on human PDE4D (HPDE4D) of 2.3 nM.
`CCOc1ccc(-c2nc(CCC(=O)c3ccc(Cl)cc3OC)cs2)cc1OCC` [Example 106]: the melting point fell in the range of 102.8 to 104.2 °C. The same molecule gave an IC50 against human PDE4D (HPDE4D) of 5.7 nM.
For `CCOc1ccc(-c2nc(CCC(=O)c3ccccc3C)cs2)cc1OCC` [Example 107] the same measures were 107.1 to 107.4 °C and 5.8 nM.
For `CCOc1ccc(-c2nc(CCC(O)c3ncccc3OC)cs2)cc1OCC` (centres unmarked) [Example 187, 3-[2-(3,4-diethoxyphenyl)thiazole-4-yl]-1-(3-methoxypyridine-2-yl)-1-propanol dihydrochloride], the IC50 at human PDE4D (HPDE4D) stood at 6.6 nM.
On to `CCOc1ccc(-c2nc(CCCc3ncccc3OC)cs2)cc1OCC.Cl.Cl` [Example 238, 2-{3-[2-(3,4-diethoxyphenyl)thiazole-4-yl]propyl}-3-methoxypyridine dihydrochloride], for which the melting point lay in the range of 169.4 to 171.2 °C. The molecule further had an IC50 on human PDE4D (HPDE4D) of 7.2 nM.
For `CCOc1ccc(-c2nc(CCC(=O)c3ccccc3C#N)cs2)cc1OCC` [Example 239, 2-{3-[2-(3,4-diethoxyphenyl)thiazole-4-yl]propionyl}benzonitrile] the same measures were 113.7 to 114.8 °C and 9.7 nM.
